Reference: patent publication US10125144B2, “Rho kinase inhibitors” (Kadmon Corporation, LLC, priority 2013, dated 2018)
Several values for one entry are separate records, joined by “and”; a condition that tells them apart may be missing. Equal values may be shown once. Entries after “also recorded” stand apart in the source; their conditions may differ. Read-outs that look alike come from different tables or passages of the source.

How the values were obtained:
CD4+ human T cells = assay: cytokine secretion by CD4+ human T cells stimulated with anti-CD3/CD28; assay type: cell-based
From the text: Activation of resting T cells, resulting in cytokine secretion and proliferation, involves two distinct signals from antigen-presenting cells (APCs), mimicked by co-stimulation of the T cell receptor (TCR)/CD3 complex and the CD28 receptor. […] Under the same conditions, the inhibition of IFN-γ and IL-2 was not observed (FIG. 2).

[1] = tested on: experimental autoimmune encephalomyelitis (EAE); assay: experimental autoimmune encephalomyelitis (EAE) in mice; assay type: in vivo; details: C57BL/6 mice, MOG35-55 in CFA, 150 mg/kg QD or BID
ROCK1 = ROCK1 (Homo sapiens (Human), UniProt Q13464); assay: Invitrogen Z'-LYTE kinase assay, ROCK1 inhibition; assay type: biochemical; details: 5 uM ATP
From the text: (§1) Dose response curves for Rho-kinase inhibition were derived from a Invitrogen Z′-LYTE™ Kinase Assay Kit (Invitrogen catalog number PV3793). Purified active ROCK1 and ROCK2 were obtained from Invitrogen (catalog numbers ROCK1, PV3691 and ROCK2, PV3759). The kit components include a coumarin and fluorescein labeled peptide based on myosin light chain 2 ([sequence]), a proprietary protease containing development reagent and a proprietary Stop buffer used to terminate the development reaction. The inhibitory activities of compounds are measured according to the manufactures protocol. Briefly, decreasing concentrations of test compounds or the known ROCK inhibitor Y-27963, are added, from 10 uM to 2.56×10^−5 uM to reaction buffer containing 50 mM HEPES pH 7.5, 10 mM MgCl2, 5 mM EGTA, and 0.05% Brij-35 and of ROCK1 at 0.18 ug/mL or ROCK2 at 0.8 ug/mL in assay dilution buffer. This mixture is overlayed into a white 96-well half area plate and the reaction is initiated with the addition of 5 uM ATP for ROCK1 or 12 uM ATP for ROCK2. The assay proceeds at room temperature for 1 hour followed by the addition of development reagent, and further incubation for 1 hour at room temperature. STOP reagent is then added and the reaction and immediately the coumarin and fluorescein emission signals are read on a Tecan Infinite M1000 fluorescence plate reader (excitation: 400 nm; emission 445 and 520 nm, respectively). By comparing the emission ratios of the test samples against control samples, percent phosphorylation values are calculated and the concentration of inhibitor that produces ½ inhibition of kinase activity (IC50) is determined using Prism.

ROCK2 = ROCK2 (Homo sapiens (Human), UniProt O75116); assay: Invitrogen Z'-LYTE kinase assay, ROCK2 inhibition; assay type: biochemical; details: ROCK2 0.8 ug/mL, 12 uM ATP
From the text: as §1

murine VEGFR2 [2] = target: T1, murine VEGFR2 (Mus musculus (Mouse), UniProt P35918); assay: ELISA receptor binding, mVEGFR2
T1 sequence (P35918 20-1345): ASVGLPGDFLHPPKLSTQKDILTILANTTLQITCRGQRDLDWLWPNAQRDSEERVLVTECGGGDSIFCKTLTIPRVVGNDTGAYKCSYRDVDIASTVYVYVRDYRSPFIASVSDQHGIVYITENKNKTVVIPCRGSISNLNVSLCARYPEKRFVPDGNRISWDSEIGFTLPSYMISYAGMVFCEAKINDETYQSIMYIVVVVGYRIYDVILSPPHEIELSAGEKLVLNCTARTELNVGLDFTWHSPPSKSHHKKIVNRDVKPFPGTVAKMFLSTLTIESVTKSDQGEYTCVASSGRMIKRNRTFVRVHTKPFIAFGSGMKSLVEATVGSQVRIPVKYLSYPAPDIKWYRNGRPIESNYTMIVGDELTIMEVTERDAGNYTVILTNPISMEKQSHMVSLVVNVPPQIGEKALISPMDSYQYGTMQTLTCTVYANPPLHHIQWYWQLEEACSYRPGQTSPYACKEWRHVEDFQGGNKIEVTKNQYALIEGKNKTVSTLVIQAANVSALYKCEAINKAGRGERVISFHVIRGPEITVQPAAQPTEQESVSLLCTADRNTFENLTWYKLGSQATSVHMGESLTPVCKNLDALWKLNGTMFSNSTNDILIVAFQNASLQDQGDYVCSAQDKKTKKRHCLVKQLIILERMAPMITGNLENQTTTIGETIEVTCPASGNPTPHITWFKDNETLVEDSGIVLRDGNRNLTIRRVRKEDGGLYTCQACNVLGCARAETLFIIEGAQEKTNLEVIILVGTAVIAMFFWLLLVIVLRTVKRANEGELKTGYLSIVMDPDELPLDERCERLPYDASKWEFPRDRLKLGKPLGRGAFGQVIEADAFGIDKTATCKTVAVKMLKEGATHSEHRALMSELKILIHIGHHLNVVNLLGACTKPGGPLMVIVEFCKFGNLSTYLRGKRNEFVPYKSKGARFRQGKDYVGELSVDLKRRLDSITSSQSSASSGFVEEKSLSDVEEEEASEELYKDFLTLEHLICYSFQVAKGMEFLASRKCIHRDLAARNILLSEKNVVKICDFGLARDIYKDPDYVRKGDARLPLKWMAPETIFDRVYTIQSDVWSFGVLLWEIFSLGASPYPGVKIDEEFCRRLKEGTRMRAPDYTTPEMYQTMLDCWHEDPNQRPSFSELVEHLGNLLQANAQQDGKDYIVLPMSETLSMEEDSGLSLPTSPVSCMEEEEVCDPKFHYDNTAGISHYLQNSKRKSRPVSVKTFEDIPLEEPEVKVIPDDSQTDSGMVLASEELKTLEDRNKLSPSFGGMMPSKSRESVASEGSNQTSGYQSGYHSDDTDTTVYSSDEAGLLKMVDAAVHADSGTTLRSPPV

[3] = target: human VEGFR2 on HUVEC and KDR-PAE cells (Homo sapiens (Human), UniProt P35968); assay: binding to hVEGFR2 on HUVEC and KDR-PAE cells; assay type: cell-based
Chain of human VEGFR2 on HUVEC and KDR-PAE cells (P35968 20-1356): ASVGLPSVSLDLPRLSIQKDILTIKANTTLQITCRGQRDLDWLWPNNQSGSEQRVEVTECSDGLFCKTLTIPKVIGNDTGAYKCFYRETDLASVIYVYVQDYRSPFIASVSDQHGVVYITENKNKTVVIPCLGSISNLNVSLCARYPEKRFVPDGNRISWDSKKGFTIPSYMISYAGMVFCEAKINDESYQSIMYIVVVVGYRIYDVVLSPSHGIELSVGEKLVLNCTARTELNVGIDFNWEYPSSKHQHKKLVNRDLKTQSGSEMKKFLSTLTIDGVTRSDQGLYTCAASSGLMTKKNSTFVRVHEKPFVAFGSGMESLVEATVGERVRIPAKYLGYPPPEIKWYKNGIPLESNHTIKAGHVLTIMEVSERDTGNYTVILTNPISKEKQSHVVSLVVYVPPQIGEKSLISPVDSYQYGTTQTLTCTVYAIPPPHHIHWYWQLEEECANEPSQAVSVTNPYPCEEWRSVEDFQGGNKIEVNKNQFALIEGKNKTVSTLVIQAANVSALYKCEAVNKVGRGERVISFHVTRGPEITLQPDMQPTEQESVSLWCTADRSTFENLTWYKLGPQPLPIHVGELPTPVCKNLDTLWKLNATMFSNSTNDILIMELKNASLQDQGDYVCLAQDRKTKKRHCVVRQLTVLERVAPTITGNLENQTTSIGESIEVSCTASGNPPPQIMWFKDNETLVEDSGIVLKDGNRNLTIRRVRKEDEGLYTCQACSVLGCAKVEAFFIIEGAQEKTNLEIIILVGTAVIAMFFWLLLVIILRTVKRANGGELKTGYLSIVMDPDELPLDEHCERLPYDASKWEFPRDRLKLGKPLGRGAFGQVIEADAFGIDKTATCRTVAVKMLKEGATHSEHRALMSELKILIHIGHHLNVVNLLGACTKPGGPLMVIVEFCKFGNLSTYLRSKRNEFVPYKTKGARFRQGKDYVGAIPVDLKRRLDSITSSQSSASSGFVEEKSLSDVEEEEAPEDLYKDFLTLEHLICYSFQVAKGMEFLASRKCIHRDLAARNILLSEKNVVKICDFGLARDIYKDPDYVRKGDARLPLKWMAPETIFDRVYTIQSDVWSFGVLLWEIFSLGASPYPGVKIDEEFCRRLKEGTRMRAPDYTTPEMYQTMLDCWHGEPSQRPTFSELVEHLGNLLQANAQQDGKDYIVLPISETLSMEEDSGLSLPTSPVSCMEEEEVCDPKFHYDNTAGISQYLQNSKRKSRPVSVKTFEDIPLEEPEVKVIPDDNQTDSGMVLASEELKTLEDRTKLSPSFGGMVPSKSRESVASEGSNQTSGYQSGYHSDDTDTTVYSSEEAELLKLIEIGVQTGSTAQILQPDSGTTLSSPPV
From the text: Binding of Mab 147 to hVEGFR2 and mVEGFR2 expressed on cell membranes was also confirmed. […] Mab 147 also bound to mVEGFR expressed by MS1 murine endothelial cells (FIG. 8B).

[4] = target: binding of human VEGF with human VEGFR2 (Homo sapiens (Human), UniProt P35968); assay: ELISA ligand blocking, human VEGF / human VEGFR2
Chain of binding of human VEGF with human VEGFR2 (P35968 20-764): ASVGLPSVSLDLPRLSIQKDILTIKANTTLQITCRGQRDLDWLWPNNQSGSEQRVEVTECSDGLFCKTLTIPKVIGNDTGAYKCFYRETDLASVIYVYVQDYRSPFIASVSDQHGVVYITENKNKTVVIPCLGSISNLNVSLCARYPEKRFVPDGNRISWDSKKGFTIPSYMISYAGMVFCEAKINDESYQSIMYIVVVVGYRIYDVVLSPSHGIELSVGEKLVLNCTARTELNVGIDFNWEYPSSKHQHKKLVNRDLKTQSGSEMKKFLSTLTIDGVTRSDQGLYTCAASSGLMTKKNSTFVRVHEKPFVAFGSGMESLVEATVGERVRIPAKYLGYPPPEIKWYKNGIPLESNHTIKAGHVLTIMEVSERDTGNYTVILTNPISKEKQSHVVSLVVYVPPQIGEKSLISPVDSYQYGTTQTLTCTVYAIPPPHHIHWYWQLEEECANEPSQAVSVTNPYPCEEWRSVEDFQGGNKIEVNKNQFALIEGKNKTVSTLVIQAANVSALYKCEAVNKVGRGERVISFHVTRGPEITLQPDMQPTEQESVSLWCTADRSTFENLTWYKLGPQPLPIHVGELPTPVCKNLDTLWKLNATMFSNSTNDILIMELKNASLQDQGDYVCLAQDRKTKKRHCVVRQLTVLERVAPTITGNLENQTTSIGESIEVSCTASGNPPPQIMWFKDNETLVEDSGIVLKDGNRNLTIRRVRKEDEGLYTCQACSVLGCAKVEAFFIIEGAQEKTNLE

rat VEGFR2 = rat VEGFR2 (Rattus norvegicus (Rat), UniProt O08775); assay: Biacore analysis of binding to rat VEGFR2; details: rat antigen
Chain of rat VEGFR2 (O08775 20-1343): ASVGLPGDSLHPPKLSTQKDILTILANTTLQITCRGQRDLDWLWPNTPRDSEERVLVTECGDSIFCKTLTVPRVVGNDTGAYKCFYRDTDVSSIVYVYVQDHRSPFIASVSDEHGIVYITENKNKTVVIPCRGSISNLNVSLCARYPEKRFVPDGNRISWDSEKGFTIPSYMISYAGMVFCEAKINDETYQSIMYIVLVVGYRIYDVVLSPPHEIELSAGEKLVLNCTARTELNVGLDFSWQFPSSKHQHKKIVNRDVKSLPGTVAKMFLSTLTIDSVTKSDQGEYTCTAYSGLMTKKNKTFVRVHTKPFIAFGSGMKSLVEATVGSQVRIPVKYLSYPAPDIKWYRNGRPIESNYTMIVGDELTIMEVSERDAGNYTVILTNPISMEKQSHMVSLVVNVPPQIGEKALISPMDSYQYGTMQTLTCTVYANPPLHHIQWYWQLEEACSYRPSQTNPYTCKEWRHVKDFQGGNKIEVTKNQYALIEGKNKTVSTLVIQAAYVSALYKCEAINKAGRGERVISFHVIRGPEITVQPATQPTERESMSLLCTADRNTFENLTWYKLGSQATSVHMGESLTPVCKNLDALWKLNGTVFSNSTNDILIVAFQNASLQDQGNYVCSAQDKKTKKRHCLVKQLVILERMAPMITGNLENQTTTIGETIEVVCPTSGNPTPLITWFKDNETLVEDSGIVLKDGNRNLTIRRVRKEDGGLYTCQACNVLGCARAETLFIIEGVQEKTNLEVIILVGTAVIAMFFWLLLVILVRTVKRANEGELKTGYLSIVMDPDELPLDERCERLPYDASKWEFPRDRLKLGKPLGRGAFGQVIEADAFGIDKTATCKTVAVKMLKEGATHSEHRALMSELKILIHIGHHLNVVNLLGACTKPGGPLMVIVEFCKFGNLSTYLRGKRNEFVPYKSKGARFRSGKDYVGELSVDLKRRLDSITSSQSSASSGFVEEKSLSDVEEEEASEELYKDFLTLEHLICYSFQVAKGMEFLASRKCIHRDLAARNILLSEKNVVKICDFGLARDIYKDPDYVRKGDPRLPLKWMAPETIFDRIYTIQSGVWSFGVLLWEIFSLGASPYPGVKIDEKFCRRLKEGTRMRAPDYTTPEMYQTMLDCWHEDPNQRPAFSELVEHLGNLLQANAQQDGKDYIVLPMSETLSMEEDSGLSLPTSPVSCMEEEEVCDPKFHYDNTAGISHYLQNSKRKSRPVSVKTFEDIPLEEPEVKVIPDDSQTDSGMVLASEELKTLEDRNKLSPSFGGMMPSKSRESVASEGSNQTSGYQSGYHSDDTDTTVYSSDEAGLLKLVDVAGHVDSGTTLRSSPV
Protocol: The binding constants of Mab 147 and Mab 149 as well as the parent Mab 160 for human, murine, and rat VEGFR2 were determined by Biacore analysis (Table 4).

murine VEGFR2 [5] = target: T1, murine VEGFR2; assay: Biacore analysis of binding to murine VEGFR2; details: murine antigen
KDR-PAE cells [6] = assay: proliferation of KDR-PAE cells; assay type: cell-based, porcine
[7] = tested on: phosphorylation of KDR and p44/42 in KDR-PAE cells; assay: VEGFR2-mediated signal transduction in KDR-PAE cells; assay type: cell-based, porcine
[8] = target: VEGFR2 on MS1 murine endothelial cells (Mus musculus (Mouse), UniProt P35918); assay: binding to VEGFR2 on MS1 murine endothelial cells; assay type: cell-based
Chain of VEGFR2 on MS1 murine endothelial cells (P35918 20-1345): as the sequence (P35918 20-1345) above

[9] = tested on: phosphorylation of KDR and p44/42 in HUVEC; assay: VEGFR2-mediated signal transduction in HUVEC; assay type: cell-based, human
KDR-PAE cells [10] = assay: VEGF-induced migration of KDR-PAE cells; assay type: cell-based, porcine; details: VEGF gradient
Protocol: Migration of KDR-PAE cells was induced with a VEGF gradient (50 ng/ml VEGF (up), 100 ng/ml VEGF (low)).

human VEGFR2 [11] = target: T2, human VEGFR2 (Homo sapiens (Human), UniProt P35968); assay: Biacore analysis of binding to human VEGFR2; details: human antigen
T2 sequence (P35968 20-1356): as the sequence (P35968 20-1356) above

[12] = target: binding of murine VEGF with murine VEGFR2 (Mus musculus (Mouse), UniProt P35918); assay: ELISA ligand blocking, murine VEGF / murine VEGFR2
human VEGFR2 [13] = target: T2, human VEGFR2; assay: ELISA receptor binding, hVEGFR2

With `COc1ccc2c(c1)CN(c1nccc(Nc3ccc4[nH]ncc4c3)n1)C2` [Example 1, N-(2-(5-Methoxyisoindolin-2-yl)pyrimidin-4-yl)-1H-indazol-5-amine] the IFN-γ secretion (CD4+ human T cells) was “not observed”, the IL-2 secretion (CD4+ human T cells) was “not observed” and the IL-17 secretion (CD4+ human T cells) was “dose-dependent; also recorded: significantly inhibited”. For the same molecule, the IL-21 secretion (CD4+ human T cells) was “inhibits; also recorded: significantly inhibited”, the “EAE paralysis / mean clinical score” value [1] was “reduces paralysis” and the “EAE paralysis / mean clinical score” value ([1]; listed as compound 1) was “substantial improvement”.

In the case of `c1ccc2c(c1)CN(c1nccc(Nc3ccc4[nH]ncc4c3)n1)C2` [Example 2, N-(2-(Isoindolin-2-yl)pyrimidin-4-yl)-1H-indazol-5-amine], the IC50 (ROCK1) is reported as > 10 µM.

In the case of `COc1ccc2c(c1)CN(c1ccnc(Nc3ccc4[nH]ncc4c3)n1)C2` [Example 8, N-(4-(5-Methoxyisoindolin-2-yl)pyrimidin-2-yl)-1H-indazol-5-amine], the IC50 (ROCK1) is reported as > 10 µM.

`Clc1ccc2c(c1)CN(c1nccc(Nc3ccc4[nH]ncc4c3)n1)C2` [Example 10, N-(2-(5-Chloroisoindolin-2-yl)pyrimidin-4-yl)-1H-indazol-5-amine] was tested, and the IC50 (ROCK1) was > 10 µM.

`COc1ccc2c(c1)CCN(c1nccc(Nc3ccc4[nH]ncc4c3)n1)C2` [Example 11, N-(2-(6-Methoxy-3,4-dihydroisoquinolin-2(1H)-yl)pyrimidin-4-yl)-1H-indazol-5-amine] was tested, and the IC50 (ROCK1) was > 10 µM.

In the case of `c1cc(Nc2ccc3[nH]ncc3c2)nc(N2CCc3sccc3C2)n1` [Example 12, N-(2-(6,7-Dihydrothieno[3,2-c]pyridin-5(4H)-yl)pyrimidin-4-yl)-1H-indazol-5-amine], the IC50 (ROCK1) is reported as > 10 µM.

`COc1ccc2c(c1)CN(c1cc(Nc3ccc4[nH]ncc4c3)ncn1)C2` [Example 13, N-(6-(5-Methoxyisoindolin-2-yl)pyrimidin-4-yl)-1H-indazol-5-amine] was tested, and the IC50 (ROCK1) was > 10 µM.

`COc1ccc2c(c1)CN(c1cc(Nc3ccc4[nH]ncc4c3)nc(C)n1)C2` [Example 14, N-(6-(5-Methoxyisoindolin-2-yl)-2-methylpyrimidin-4-yl)-1H-indazol-5-amine] was tested, and the IC50 (ROCK2) was 130 to 180 nM and the IC50 (ROCK1) was > 10 µM.

With `c1cc2c(cn1)CN(c1nccc(Nc3ccc4[nH]ncc4c3)n1)C2` [Example 15, N-(2-(1H-Pyrrolo[3,4-c]pyridin-2(3H)-yl)pyrimidin-4-yl)-1H-indazol-5-amine] the IC50 (ROCK1) was > 10 µM.

With `COc1ccc2c(c1)CN(c1nc(C)c(C)c(Nc3ccc4[nH]ncc4c3)n1)C2` [Example 16, N-(2-(5-Methoxyisoindolin-2-yl)-5,6-dimethylpyrimidin-4-yl)-1H-indazol-5-amine] the IC50 (ROCK2) was > 10 nM.

In the case of `c1ccc2c(c1)CN(c1nc3c(c(Nc4ccc5[nH]ncc5c4)n1)COC3)C2` [Example 17, N-(1H-Indazol-5-yl)-2-(isoindolin-2-yl)-5,7-dihydrofuro[3,4-d]pyrimidin-4-amine], the IC50 (ROCK1) is reported as > 10 µM.

With `COc1ccc2c(c1)CN(c1nccc(Nc3ccncc3)n1)C2` [Example 19, 2-(5-Methoxyisoindolin-2-yl)-N-(pyridin-4-yl)pyrimidin-4-amine] the IC50 (ROCK2) was > 10000 nM and the IC50 (ROCK1) was > 10 µM.

With `COc1ccc2c(c1)CN(c1nccc(Nc3ccc(-c4ccncc4)cc3)n1)C2` [Example 20, 2-(5-Methoxyisoindolin-2-yl)-N-(4-(pyridin-4-yl)phenyl)pyrimidin-4-amine] the IC50 (ROCK1) was > 10 µM.

In the case of `COc1ccc2c(c1)CN(c1nc3c(c(Nc4ccc5[nH]ncc5c4)n1)COCC3)C2` [Example 21, N-(1H-Indazol-5-yl)-2-(5-methoxyisoindolin-2-yl)-7,8-dihydro-5H-pyrano[4,3-d]pyrimidin-4-amine], the IC50 (ROCK2) is reported as 185 nM and the IC50 (ROCK1) is reported as > 10 µM.

With `COc1ccc2c(c1)CN(c1nc3c(c(Nc4ccc5[nH]ncc5c4)n1)CNC3)C2` [Example 22, N-(1H-Indazol-5-yl)-2-(5-methoxyisoindolin-2-yl)-6,7-dihydro-5H-pyrrolo[3,4-d]pyrimidin-4-amine] the IC50 (ROCK2) was 24300 nM and 24000 nM.

For `COc1ccc2c(c1)CN(c1nc3c(c(Nc4ccc5[nH]ncc5c4)n1)CCNC3)C2` [Example 24, N-(1H-Indazol-5-yl)-2-(5-methoxyisoindolin-2-yl)-5,6,7,8-tetrahydropyrido[3,4-d]pyrimidin-4-amine], the IC50 (ROCK1) was 2.5 µM.

For `COc1ccc2c(c1)CN(c1nc3c(c(Nc4ccc5[nH]ncc5c4)n1)CCN(C)C3)C2` [Example 25, N-(1H-Indazol-5-yl)-2-(5-methoxyisoindolin-2-yl)-7-methyl-5,6,7,8-tetrahydropyrido[3,4-d]pyrimidin-4-amine], the IC50 (ROCK2) was 130 nM and the IC50 (ROCK1) was > 10 µM.

`N#Cc1ccc2c(c1)CN(c1nccc(Nc3ccc4[nH]ncc4c3)n1)C2` [Example 26, 2-(4-((1H-Indazol-5-yl)amino)pyrimidin-2-yl)isoindoline-5-carbonitrile] was tested, and the IC50 (ROCK2) was 123 nM and the IC50 (ROCK1) was > 10 µM.

In the case of `COCc1ccc2c(c1)CN(c1nccc(Nc3ccc4[nH]ncc4c3)n1)C2` [Example 27, N-(2-(5-(Methoxymethyl)isoindolin-2-yl)pyrimidin-4-yl)-1H-indazol-5-amine], the IC50 (ROCK2) is reported as 100 nM and the IC50 (ROCK1) is reported as 6.73 µM.

For `Fc1cccc2c1CN(c1nccc(Nc3ccc4[nH]ncc4c3)n1)C2` [Example 29, N-(2-(4-Fluoroisoindolin-2-yl)pyrimidin-4-yl)-1H-indazol-5-amine], the IC50 (ROCK2) was 880 nM.

`Fc1ccc2c(c1)CN(c1nc3c(c(Nc4ccc5[nH]ncc5c4)n1)COC3)C2` [Example 30, 2-(5-Fluoroisoindolin-2-yl)-N-(1H-indazol-5-yl)-5,7-dihydrofuro[3,4-d]pyrimidin-4-amine] was tested, and the IC50 (ROCK1) was > 10 µM.

In the case of `COc1nc(N2Cc3ccccc3C2)nc(Nc2ccc3[nH]ncc3c2)c1OC` [Example 32, N-(2-(Isoindolin-2-yl)-5,6-dimethoxypyrimidin-4-yl)-1H-indazol-5-amine], the IC50 (ROCK2) is reported as 607 nM and the IC50 (ROCK1) is reported as > 10 µM.

B1: Mab 147: affinity matured anti-VEGFR2 antibody derived from Mab 138; VH SEQ ID NO:200, VL SEQ ID NO:204 (antibody, V domains shown)
VH: EVQLLESGGGLVQPGGSLRLSCAASGFTFSWYVMGWVRQAPGKGLEWVSSIYPQGGATSYADSVKGRFTISRDNSKNTLYLQMNSLRAEDTAVYYCARGNYFDYWGQGTLVTVSS
VL: DIQMTQSPGTLSLSPGEGATLSCRASQSVSSNYFGWYQQKPGQAPRLLIYGASSRATGIPDRFSGSGSGTDFTLTISRLEPEDSAVYYCQQFDSLPLTFGGGTKVEIKR
modifications: Mutation of library member
In the case of B1, the “binding to murine VEGFR2” value (murine VEGFR2 [2]) is reported as “binds to both hVEGFR2 and mVEGFR2 with similar affinity”, the “binding to hVEGFR2 expressed on cell membranes” value [3] is reported as “confirmed” and the “blocking of binding of human VEGF with human VEGFR2” value [4] is reported as “blocks ligand binding”. For the same molecule, the ka (rat VEGFR2) was 6.45E+04, the kd (rat VEGFR2) was 8.99E−04 and the ka (murine VEGFR2 [5]) was 4.38E+04. The kd (murine VEGFR2 [5]) was 1.28E−03, the “proliferation of KDR-PAE cells” value (KDR-PAE cells [6]) was “inhibit” and the “phosphorylation of KDR and p44/42” value [7] was “inhibit”. The “phosphorylation of KDR and p44/42” value ([7]; listed as Mab-147) was “reduced phosphorylation”, the “binding to VEGFR2 on MS1 murine endothelial cells” value [8] was “binds; also recorded: bound” and the “phosphorylation of KDR and p44/42” value [9] was “inhibit”. For the same molecule, the “phosphorylation of KDR and p44/42” value ([9]; listed as Mab-147) was “reduced phosphorylation”, the “VEGF-induced migration of KDR-PAE cells” value (KDR-PAE cells [10]) was “inhibiting” and the ka (human VEGFR2 [11]) was 1.13E+05. The kd (human VEGFR2 [11]) was 2.82E−04, the “blocking of binding of murine VEGF with murine VEGFR2” value [12] was “blocks ligand binding” and the “binding to human VEGFR2” value (human VEGFR2 [13]) was “binds to both hVEGFR2 and mVEGFR2 with similar affinity”.

B2: Mab 149: affinity matured anti-VEGFR2 antibody derived from Mab 138; VH SEQ ID NO:216, VL SEQ ID NO:220 (antibody, V domains shown)
VH: EVQLLESGGGLVQPGGSLRLSCAASGFTFSWYVMGWVRQAPGKGLEWVSSIYPSGGATNYADSVKGRFTISRDNSKNTLYLQMNSLRAEDTAVYYCARGNYLDYWGQGTLVTVSS
VL: DIQMTQSPGTLSLSPGEGATLSCRASQSVSSNYFGWYQQKPGQAPRLLIYGASSRATGIPDRFSGSGSGTDFTLTISRLEPEDSAVYYCQQFDSSPLSFGGGTKVEIKR
modifications: Mutated library sequence
Molecule B2 has a ka (rat VEGFR2) of 3.32E+04, a kd (rat VEGFR2) of 1.43E−03 and a ka (murine VEGFR2 [5]) of 2.29E+04. The kd (murine VEGFR2 [5]) was 1.81E−03, the ka (human VEGFR2 [11]) was 8.62E+04 and the kd (human VEGFR2 [11]) was 6.59E−04.
